Data taken from patent US11026943B2, “Aminoquinoline derivatives and uses thereof” (UNIVERSITY OF DELHI, priority 2012, dated 2021).

How the values were obtained:
[1] = test system: CQ-sensitive (D6 clone) strain of P. falciparum; assay: In vitro antimalarial activity, CQ-sensitive strain; assay type: cell-based, Plasmodium falciparum; details: for IC50: Plasmodium falciparum, CQ-sensitive D6 clone, read-out: P. falciparum (D6 Clone) IC50; for P. falciparum (D6 Clone) S.I.: selectivity index = IC50 cytotoxicity to Vero cells / IC50 antimalarial; for selectivity index of antimalarial activity: ratio of IC50 for cytotoxicity to Vero cells and IC50 for antimalarial activity; for activity fold higher than artemisinin: CQ-sensitive strain
Description: (§1) Med. Chem. 2005, 13, 4458; Khan, I. A. Lipids 2004, 37, 169].

[2] = test system: CQ-resistant (W2 clone) strain of P. falciparum; assay: In vitro antimalarial activity, CQ-resistant strain; assay type: cell-based, Plasmodium falciparum; details: for IC50: Plasmodium falciparum, CQ-resistant W2 clone, read-out: P. falciparum (W2 Clone) IC50; for P. falciparum (W2 Clone) S.I.: selectivity index = IC50 cytotoxicity to Vero cells / IC50 antimalarial
Description: as §1

[3] = test system: VERO cells; assay: In vitro cytotoxicity to mammalian cells, VERO; assay type: cell-based; details: for IC50: Chlorocebus sabaeus, Vero, in vitro cytotoxicity to mammalian cells; for toxicity to cell lines: all the three cell lines (VERO, LLC-PK-1, and HepG2)
Description: as §1

[4] = test system: LLC-PK-1 cells; assay: In vitro cytotoxicity to mammalian cells, LLC-PK-1; assay type: cell-based; details: Sus scrofa, LLC-PK1
Description: as §1

[5] = test system: HepG2 cells; assay: In vitro cytotoxicity to mammalian cells, HepG2; assay type: cell-based; details: Homo sapiens
Description: as §1

[6] = test system: parasitemia; assay: In-vivo antimalarial activity in mice; details: mice; for Cure (number of mice without parasitemia till day 28 post-infection) / MST (mean survival time) / Remarks (toxicity) / % Parasitemia suppression Day 5 / % Parasitemia suppression Day 7 / Survival (animals that survived day 28/total animals in group) / Day of Death: PO; for Day of Death: per animal
[7] = target: Nurr1 LBD (Mus musculus, UniProt Q06219); assay: Filter binding assay with [3H]-CQ (saturation and competition); details: radioligand saturation binding; read-out: dissociation constant, saturable binding to Nurr1-LBD
Chain of Nurr1 LBD (Q06219 328-598): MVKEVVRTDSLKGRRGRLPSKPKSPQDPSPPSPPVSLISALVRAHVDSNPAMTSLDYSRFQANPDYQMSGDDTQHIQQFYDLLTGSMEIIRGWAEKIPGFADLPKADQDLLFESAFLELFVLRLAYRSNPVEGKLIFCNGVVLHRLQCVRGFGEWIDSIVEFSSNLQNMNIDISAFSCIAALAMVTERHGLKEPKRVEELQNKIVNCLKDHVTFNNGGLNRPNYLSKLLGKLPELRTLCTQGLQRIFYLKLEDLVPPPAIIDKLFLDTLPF
Description: The basal level of transcriptional activity was normalized to 1. The bars represent means±SEM from three independent experiments. (FIG. 13C) Effect of Nurr1 specific siRNA on Nurr1 LBD's transactivation activity. […] (FIG. 13D) Human neuroblastoma SK-N-BE(2)C cells were transfected with the N-terminal flag-tagged SRC1 or SRC3 and the C-terminal myc-tagged full-length Nurr1. […] Cell lysates were immunoprecipitated (IP) using anti-flag antibodies and analyzed by immunoblotting (IB) using anti-myc antibodies. […] The fold induction was derived by comparing each luciferase activity to basal level obtained by non-SRC transfection. […] The concentrations (04) are shown next to the arrows. […] Specific binding was calculated as the difference of total and non-specific binding. The insert indicates Scatchard analysis of the specific binding. […] The data represent the average of triplicate from three independent experiments. All graphs, Kd, Ki, and Bmax values were generated using the non-linear regression program Prism version 5.02.
GF/C filters were wet with in binding buffer and placed on a 48-place filter manifold. […] Filters were washed with 4×100 ml binding buffer, dried, and mixed with 5 ml Scintiverse BD (Fisher) and radioactivity was determined in a Beckman LS6000SC liquid scintillation counter. […] The mixture was applied to GF/C filter and filter was washed and counted as described above.

[8] = 3.3 mg/kg × 3 days post-infection
[9] = 10 mg/kg × 3 days post-infection
[10] = 30 mg/kg × 3 days post-infection

## Cc1cc(NCCNc2ccnc3cc(Cl)ccc23)nc(N2CCCCC2)n1 [12a, N-(7-chloro-quinolin-4-yl)-N′-(6-methyl-2-piperidin-1-yl-pyrimidin-4-yl)-ethane-1,2-diamine]
other
  melting point: 177 to 179 °C

## Cc1cc(NCCCCNc2ccnc3cc(Cl)ccc23)nc(N2CCCCC2)n1 [12c, N-(7-Chloro-quinolin-4-yl)-N′-(6-methyl-2-piperidin-1-yl-pyrimidin-4-yl)-butane-1,4-diamine]
[1]
  IC50: 0.021 µM
  P. falciparum (D6 Clone) S.I.: (>2857)
[2]
  IC50: 0.082 µM
  P. falciparum (W2 Clone) S.I.: (>730)
[3]
  IC50: > 60 µM
[4]
  IC50: > 60 µM
[5]
  IC50: > 60 µM
other
  melting point: 187 to 189 °C

## Cc1cc(NCCCCCCNc2ccnc3cc(Cl)ccc23)nc(N2CCCCC2)n1 [12d, N-(7-Chloro-quinolin-4-yl)-N′-(6-methyl-2-piperidin-1-yl-pyrimidin-4-yl)-hexane-1,6-diamine]
[1]
  IC50: 0.066 µM
  selectivity index of antimalarial activity: considerably high
  P. falciparum (D6 Clone) S.I.: 142.4
[2]
  IC50: 0.128 µM
  P. falciparum (W2 Clone) S.I.: 73.4
[3]
  IC50: 9.4 µM
  toxicity to cell lines: showed toxicity
[4]
  IC50: < 6.7 µM
[5]
  IC50: < 6.7 µM
other
  melting point: 97 to 99 °C

## Cc1cc(NCCNc2ccnc3cc(Cl)ccc23)nc(N2CCOCC2)n1 [12e, N-(7-Chloro-quinolin-4-yl)-N′-(6-methyl-2-morpholin-4-yl-pyrimidin-4-yl)-ethane-1,2-diamine]
[1]
  IC50: 0.025 µM
  P. falciparum (D6 Clone) S.I.: (>2400)
[2]
  IC50: 0.12 µM
  P. falciparum (W2 Clone) S.I.: (>500)
[3]
  IC50: > 60 µM
[4]
  IC50: > 60 µM
[5]
  IC50: > 60 µM
other
  melting point: 165 to 167 °C

## Cc1cc(NCCCNc2ccnc3cc(Cl)ccc23)nc(N2CCOCC2)n1 [12f, N-(7-Chloro-quinolin-4-yl)-N′-(6-methyl-2-morpholin-4-yl-pyrimidin-4-yl)-propane-1,3-diamine]
[1]
  IC50: 0.022 µM
  P. falciparum (D6 Clone) S.I.: (>2727)
[2]
  IC50: 0.058 µM
  P. falciparum (W2 Clone) S.I.: (>1034)
[3]
  IC50: > 60 µM
[4]
  IC50: 35.1 µM
[5]
  IC50: 26.1 µM
other
  melting point: 165 to 167 °C

## Cc1cc(NCCCCNc2ccnc3cc(Cl)ccc23)nc(N2CCOCC2)n1 [12g, N-(7-Chloro-quinolin-4-yl)-N′-(6-methyl-2-morpholin-4-yl-pyrimidin-4-yl)-butane-1,4-diamine]
other
  melting point: 214 to 216 °C

## Cc1cc(NCCCCCCNc2ccnc3cc(Cl)ccc23)nc(N2CCOCC2)n1 [12h, N-(7-Chloro-quinolin-4-yl)-N′-(6-methyl-2-morpholin-4-yl-pyrimidin-4-yl)-hexane-1,6-diamine]
[1]
  IC50: 0.041 µM
  selectivity index of antimalarial activity: considerably high
  P. falciparum (D6 Clone) S.I.: 417.0
[2]
  IC50: 0.12 µM
  P. falciparum (W2 Clone) S.I.: 142.5
[3]
  IC50: 17.1 µM
  toxicity to cell lines: showed toxicity
[4]
  IC50: 9.8 µM
[5]
  IC50: < 6.7 µM
other
  melting point: 107 to 109 °C

## Cc1cc(NCCCNc2ccnc3cc(Cl)ccc23)nc(N2CCN(C)CC2)n1 [12j, N-(7-Chloro-quinolin-4-yl)-N′-[6-methyl-2-(4-methyl-piperazin-1-yl)-pyrimidin-4-yl]-propane-1,3-diamine]
[1]
  activity fold higher than artemisinin: 2 fold
  IC50: 0.007 µM
  P. falciparum (D6 Clone) S.I.: (>8571)
[2]
  IC50: 0.063 µM
  P. falciparum (W2 Clone) S.I.: (>952)
[3]
  IC50: > 60 µM
[4]
  IC50: 35.2 µM
[5]
  IC50: 25.8 µM
other
  melting point: 176 to 178 °C

## Cc1cc(NCCCCNc2ccnc3cc(Cl)ccc23)nc(N2CCN(C)CC2)n1 [12k, N-(7-Chloro-quinolin-4-yl)-N′-[6-methyl-2-(4-methyl-piperazin-1-yl)-pyrimidin-4-yl]-butane-1,4-diamine]
[1]
  IC50: 0.022 µM
  P. falciparum (D6 Clone) S.I.: (>2727)
[2]
  IC50: 0.021 µM
  P. falciparum (W2 Clone) S.I.: (>2857)
[3]
  IC50: > 60 µM
[4]
  IC50: 34 µM
[5]
  IC50: 27.2 µM
other
  melting point: 183 to 185 °C

## Cc1cc(NCCCCCCNc2ccnc3cc(Cl)ccc23)nc(N2CCN(C)CC2)n1 [12l, N-(7-Chloro-quinolin-4-yl)-N′-[6-methyl-2-(4-methyl-piperazin-1-yl)-pyrimidin-4-yl]-hexane-1,6-diamine]
[1]
  activity fold higher than artemisinin: 2 fold
  IC50: 0.007 µM
  selectivity index of antimalarial activity: considerably high
  P. falciparum (D6 Clone) S.I.: (>1457)
[2]
  IC50: 0.016 µM
  P. falciparum (W2 Clone) S.I.: (>637)
[3]
  IC50: 10.2 µM
  toxicity to cell lines: showed toxicity
[4]
  IC50: 7.4 µM
[5]
  IC50: < 6.7 µM
other
  melting point: 152 to 154 °C

## CCN1CCN(c2nc(C)cc(NCCCNc3ccnc4cc(Cl)ccc34)n2)CC1 [12m, N-(7-Chloro-quinolin-4-yl)-N′-[2-(4-ethyl-piperazin-1-yl)-6-methyl-pyrimidin-4-yl]-propane-1,3-diamine]
[1]
  activity fold higher than artemisinin: 2 fold
  IC50: 0.006 µM
  P. falciparum (D6 Clone) S.I.: (>10000)
[2]
  IC50: 0.061 µM
  P. falciparum (W2 Clone) S.I.: (>983)
[3]
  IC50: > 60 µM
[4]
  IC50: > 60 µM
[5]
  IC50: > 60 µM
[6]; day 5, 30 mg/kg for 3 days post infection
  parasitemia suppression: 100%
[6]; day 28, 30 mg/kg for 3 days post infection
  survival rate: 4/5
[6]; 30 mg/kg for 3 days post infection
  apparent toxicity: No apparent toxicity
[6]; [8]
  Cure (number of mice without parasitemia till day 28 post-infection): 0/5
  MST (mean survival time): 20.2 days
  Remarks (toxicity): No apparent
  % Parasitemia suppression Day 7: 19.09%
  Day of Death: 17/21/21/21/21
[6]; 3.3 mg/kg × 3 days post-infection, day 5
  % Parasitemia suppression Day 5: 20.12%
[6]; 3.3 mg/kg × 3 days post-infection, day 28
  Survival (animals that survived day 28/total animals in group): 0/5
[6]; [9]
  Cure (number of mice without parasitemia till day 28 post-infection): 0/5
  MST (mean survival time): 15.2 days
  Remarks (toxicity): No apparent
  % Parasitemia suppression Day 7: 27.14%
  Day of Death: 7/21/20/7/21
[6]; 10 mg/kg × 3 days post-infection, day 5
  % Parasitemia suppression Day 5: 73.89%
[6]; 10 mg/kg × 3 days post-infection, day 28
  Survival (animals that survived day 28/total animals in group): 0/5
[6]; [10]
  Cure (number of mice without parasitemia till day 28 post-infection): 1/5
  MST (mean survival time): 27.2 days
  Remarks (toxicity): No apparent
  % Parasitemia suppression Day 7: 100.00%
  Day of Death: 28/28/28/28/24
[6]; 30 mg/kg × 3 days post-infection, day 5
  % Parasitemia suppression Day 5: 100.00%
[6]; 30 mg/kg × 3 days post-infection, day 28
  Survival (animals that survived day 28/total animals in group): 4/5

## CCN1CCN(c2nc(C)cc(NCCCCNc3ccnc4cc(Cl)ccc34)n2)CC1 [12n, N-(7-Chloro-quinolin-4-yl)-N′-[2-(4-ethyl-piperazin-1-yl)-6-methyl-pyrimidin-4-yl]-butane-1,4-diamine]
[1]
  IC50: 0.019 µM
  P. falciparum (D6 Clone) S.I.: 1678.9
[2]
  IC50: 0.018 µM
  P. falciparum (W2 Clone) S.I.: 1772.2
[3]
  IC50: 31.9 µM
[4]
  IC50: 10.5 µM
[5]
  IC50: 14.9 µM
other
  melting point: 101 to 103 °C

## CCN(CC)CCCC(C)Nc1ccnc2cc(Cl)ccc12 (stereo not shown) [[^3H]-CQ]
[7]
  Kd: 0.27 µM
